Measurements reported in patent EP0345356A1, “PLATINUM COMPLEX AND THERAPEUTIC AGENT FOR MALIGNANT TUMOR” (TORAY INDUSTRIES, INC., priority 1987, dated 1989).
Values joined by “and” are separate entries in the source; they are usually repeats but may differ in a detail not shown here. Equal entries are not always repeated.

Key:
[1] = test system: L1210 murine leukemia cells; assay: Antitumor activity against L1210 leukemia in mice; assay type: in vivo, CDF1 mice; conditions: for Survival days (mean ± SD) / T/C (%): given on 1st, 5th and 9th days after tumor inoculation; for Survival rate: number of 30 days survival mice / group
Method: L1210 murine leukemia cells which were subcultured in DBA/2 mouse were inoculated intraperitoneally into CDF1 mice at 10^5 cells/mouse. Each experimental group was composed of 6-10 mice (male, 6-weeks old). Each test compound was administered three times, i.e., on the 1st, 5th and 9th days after tumor inoculation. […] Each compound was dissolved or suspended in 0.05% "Tween 80" solution and administered in mice.

Slc:ICR mice = assay: Acute toxicity test in mice (LD50, Miller-Tainter method); assay type: in vivo; conditions: intraperitoneal, Slc:ICR mice (male), death rate on the 14th day
Method: Platinum complexes to be tested was administered intraperitoneally to Slc:ICR mice (male, 5 weeks old, 6 mice/group). Each complex was used in the form of a solution or suspension in a 0.05% "Tween 80" in saline. The LD50 value was calculated by the Miller-Tainter method from the death rate on the 14th day from the date of the administration.

## CC(=O)N1c2ccccc2CC1C(=O)[O-].CC(=O)N1c2ccccc2CC1C(=O)[O-].NC1CCCCC1N.[Pt+2] (racemic) [XXIII-2, Bis(DL-1-acetylindoline-2-carboxylato)(trans-ℓ-dach)platinum(II)]
[1]; Dose 1 mg/kg
  Survival days (mean ± SD): 8.3 ± 0.5 days
  T/C (%): 102%
  Survival rate: 0/6
[1]; Dose 10 mg/kg
  Survival days (mean ± SD): 12.7 ± 8.6 days
  T/C (%): 157%
  Survival rate: 1/6
[1]; Dose 25 mg/kg
  Survival days (mean ± SD): 14.2 ± 3.3 days
  T/C (%): 175%
  Survival rate: 0/6
[1]; Dose 50 mg/kg
  Survival days (mean ± SD): 13.3 ± 6.1 days
  T/C (%): 164%
  Survival rate: 0/6
[1]; Dose 100 mg/kg
  Survival days (mean ± SD): 22.2 ± 9.0 days
  T/C (%): 274%
  Survival rate: 3/6
[1]; Dose 200 mg/kg
  Survival days (mean ± SD): 14.0 ± 2.4 days
  T/C (%): 173%
  Survival rate: 0/6
Slc:ICR mice
  LD50 values: >200 mg/kg

## NC1CCCCC1N.O=C([O-])c1ccc(=O)oc1.O=C([O-])c1ccc(=O)oc1.[Pt+2] [XXII-1, bis(2-pyrone-5-carboxylato)(trans-ℓ-dach)platinum(II)]
[1]; Dose 1 mg/kg, 1 mg/kg
  Survival days (mean ± SD): 9.0 ± 0.9 days and 11.3 ± 0.8 days
  T/C (%): 108% and 140%
[1]; Dose 1 mg/kg
  Survival rate: 0/6
[1]; Dose 10 mg/kg, 10 mg/kg
  Survival rate: 0/6 and 2/6
[1]; Dose 25 mg/kg, 25 mg/kg
  Survival rate: 0/6 and 3/6
[1]; Dose 50 mg/kg, 50 mg/kg
  Survival days (mean ± SD): 15.2 ± 3.1 days and 17.8 ± 2.8 days
  T/C (%): 183% and 220%
[1]; Dose 50 mg/kg
  Survival rate: 0/6
[1]; Dose 100 mg/kg, 100 mg/kg
  Survival days (mean ± SD): 20.7 ± 7.2 days and 12.3 ± 2.7 days
  T/C (%): 249% and 152%
  Survival rate: 1/6 and 0/6
[1]; Dose 200 mg/kg
  Survival rate: 0/6
Slc:ICR mice
  LD50 values: >200 mg/kg
